The results in this text go back to ChEMBL document CHEMBL4184127, “Isolation of a peptide containing d-amino acid residues that inhibits the α-helix-mediated p53-MDM2 interaction from a one-bead one-compound library” (Bioorg Med Chem Lett, 2018).

A short description of data set [1]: Metabolic stability in human serum assessed as compound remaining at 3 mM after 24 hrs by HPLC analysis. Type of data set: ADME, cell-free. To be noted: read-out: Stability.
A short description of data set [2]: Metabolic stability in human serum assessed as compound remaining at 3 mM after 72 hrs by HPLC analysis. Type of data set: ADME, cell-free. To be noted: read-out: Stability.

Consider `CC(C)C[C@H](NC(=O)[C@H](CC(=O)O)NC(=O)[C@H](CCC(=O)O)NC(=O)[C@@H](NC(=O)[C@H](CC(C)C)NC(=O)[C@H](CCC(=O)O)NC(=O)C(C)(C)NC(=O)[C@H](Cc1c[nH]c2ccccc12)NC(=O)[C@@H](NC(=O)[C@@H](N)CC(=O)O)[C@@H](C)O)C(C)C)C(=O)N[C@@H](CC(N)=O)C(=O)NCC(=O)NCC(=O)NCC(=O)N[C@@H](CO)C(=O)N[C@@H](Cc1ccc(Br)cc1)C(=O)N[C@@H](CCCNC(=N)N)C(N)=O`, for which the remaining at 24 h, 3000 µM in data set [1] was determined as 24%.

As for `CC(C)C[C@@H](NC(=O)[C@@H](CC(=O)O)NC(=O)[C@@H](CCC(=O)O)NC(=O)[C@H](NC(=O)[C@@H](CC(C)C)NC(=O)[C@@H](CCC(=O)O)NC(=O)C(C)(C)NC(=O)[C@@H](Cc1c[nH]c2ccccc12)NC(=O)[C@H](NC(=O)[C@H](N)CC(=O)O)[C@@H](C)O)C(C)C)C(=O)N[C@H](CC(N)=O)C(=O)NCC(=O)NCC(=O)NCC(=O)N[C@@H](CO)C(=O)N[C@@H](Cc1ccc(Br)cc1)C(=O)N[C@@H](CCCNC(=N)N)C(N)=O`, the remaining at 24 h, 3000 µM in data set [1] came to 62%. Besides, the remaining at 72 h, 3000 µM in data set [2] turned out to be 36%.
